According to patent US20230085307A1, “PYRIDAZINONE COMPOUND AND HERBICIDE” (NISSAN CHEMICAL CORPORATION, priority 2019, published 2023):

Assays:
[1] = system: velvetleaf; test: Test Example 4: herbicidal effect by soil treatment (Table 19, symbol M); assay type: in vivo, velvetleaf (Abutilon theophrasti); conditions: amount of applied herbicide 320 g/ha
Method in brief: (§1)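 Three weeks of greenhouse growth at 25° C. to 30° C. followed a uniform surface spray of water-diluted emulsion at a predetermined herbicide amount. Seeds had been sown beforehand under about 1.5 cm of sterilized diluvial soil. Grading followed criteria set out in an earlier test.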

[2] = system: southern crabgrass; test: Test Example 4: herbicidal effect by soil treatment (Table 19, symbol F); assay type: in vivo, southern crabgrass (Digitaria ciliaris); conditions: amount of applied herbicide 320 g/ha
Method in brief: as §1

[3] = system: false cleavers; test: Test Example 4: herbicidal effect by soil treatment (Table 19, symbol Q); assay type: in vivo, false cleavers (Galium spurium); conditions: amount of applied herbicide 320 g/ha
Method in brief: as §1

[4] = system: blackgrass; test: Test Example 4: herbicidal effect by soil treatment (Table 19, symbol J); assay type: in vivo, blackgrass (Alopecurus myosuroides); conditions: amount of applied herbicide 320 g/ha
Method in brief: as §1

[5] = system: wild oat; test: Test Example 4: herbicidal effect by soil treatment (Table 19, symbol I); assay type: in vivo, wild oat (Avena fatua); conditions: amount of applied herbicide 320 g/ha
Method in brief: as §1

[6] = system: persian speedwell; test: Test Example 5: herbicidal effect by foliage application, plastic box (Table 20, symbol R); assay type: in vivo, Persian speedwell (Veronica persica); conditions: foliage application, 320 g/ha, three weeks after application
Method in brief: (§2)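 Plants sown in sterilized diluvial soil and grown 14 days in a greenhouse at 25° C to 30° C, then sprayed on the foliage with the compound's emulsion diluted in water to a predetermined herbicide amount. Injury to weeds and crops scored three weeks after application on a visual rating scale.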

[7] = system: wild oat; test: Test Example 5: herbicidal effect by foliage application, plastic box (Table 20, symbol I); assay type: in vivo, wild oat (Avena fatua); conditions: foliage application, 320 g/ha, three weeks after application
Method in brief: as §2

[8] = system: Chinese sprangletop; test: Test Example 3: herbicidal effect by foliage application, Wagner pot (Table 18, symbol D); assay type: in vivo, chinese sprangletop (Leptochloa chinensis)
Method in brief: (§3)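 Plants were sown in alluvial soil held under 0.1–0.5 cm standing water and grown 14 days in a greenhouse at 25–30 °C. An emulsifiable formulation, water-diluted to the set dose, was then sprayed onto the foliage, and effects were scored three weeks later using previously defined criteria.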

[9] = system: southern crabgrass; test: Test Example 5: herbicidal effect by foliage application, plastic box (Table 20, symbol F); assay type: in vivo, southern crabgrass (Digitaria ciliaris); conditions: foliage application, 320 g/ha, three weeks after application
Method in brief: as §2

[10] = system: green foxtail; test: Test Example 5: herbicidal effect by foliage application, plastic box (Table 20, symbol G); assay type: in vivo, green foxtail (Setaria viridis); conditions: foliage application, 320 g/ha, three weeks after application
Method in brief: as §2

[11] = system: Italian ryegrass; test: Test Example 5: herbicidal effect by foliage application, plastic box (Table 20, symbol K); assay type: in vivo, Italian ryegrass (Lolium multiflorum); conditions: foliage application, 320 g/ha, three weeks after application
Method in brief: as §2

[12] = system: windgrass; test: Test Example 5: herbicidal effect by foliage application, plastic box (Table 20, symbol L); assay type: in vivo, windgrass (Apera spica-venti); conditions: foliage application, 320 g/ha, three weeks after application
Method in brief: as §2

[13] = system: velvetleaf; test: Test Example 5: herbicidal effect by foliage application, plastic box (Table 20, symbol M); assay type: in vivo, velvetleaf (Abutilon theophrasti); conditions: foliage application, 320 g/ha, three weeks after application
Method in brief: as §2

[14] = system: windgrass; test: Test Example 4: herbicidal effect by soil treatment (Table 19, symbol L); assay type: in vivo, windgrass (Apera spica-venti); conditions: amount of applied herbicide 320 g/ha
Method in brief: as §1

[15] = system: chickweed; test: Test Example 4: herbicidal effect by soil treatment (Table 19, symbol P); assay type: in vivo, common chickweed (Stellaria media); conditions: amount of applied herbicide 320 g/ha
Method in brief: as §1

[16] = system: persian speedwell; test: Test Example 4: herbicidal effect by soil treatment (Table 19, symbol R); assay type: in vivo, Persian speedwell (Veronica persica); conditions: amount of applied herbicide 320 g/ha
Method in brief: as §1

[17] = system: blackgrass; test: Test Example 5: herbicidal effect by foliage application, plastic box (Table 20, symbol J); assay type: in vivo, blackgrass (Alopecurus myosuroides); conditions: foliage application, 320 g/ha, three weeks after application
Method in brief: as §2

[18] = system: false cleavers; test: Test Example 5: herbicidal effect by foliage application, plastic box (Table 20, symbol Q); assay type: in vivo, false cleavers (Galium spurium); conditions: foliage application, 320 g/ha, three weeks after application
Method in brief: as §2

[19] = system: lambsquarters; test: Test Example 5: herbicidal effect by foliage application, plastic box (Table 20, symbol O); assay type: in vivo, lambsquarters (Chenopodium album); conditions: foliage application, 320 g/ha, three weeks after application
Method in brief: as §2

[20] = system: barnyard grass; test: Test Example 4: herbicidal effect by soil treatment (Table 19, symbol H); assay type: in vivo, barnyard grass (Echinochloa crus-galli); conditions: amount of applied herbicide 320 g/ha
Method in brief: as §1

[21] = system: rice flat sedge; test: Test Example 3: herbicidal effect by foliage application, Wagner pot (Table 18, symbol E); assay type: in vivo, rice flat sedge (Cyperus iria)
Method in brief: as §3

[22] = system: barnyard grass; test: Test Example 3: herbicidal effect by foliage application, Wagner pot (Table 18, symbol H); assay type: in vivo, barnyard grass (Echinochloa crus-galli)
Method in brief: as §3

[23] = system: redroot pigweed; test: Test Example 4: herbicidal effect by soil treatment (Table 19, symbol N); assay type: in vivo, redroot pigweed (Amaranthus retroflexus); conditions: amount of applied herbicide 320 g/ha
Method in brief: as §1

[24] = system: green foxtail; test: Test Example 4: herbicidal effect by soil treatment (Table 19, symbol G); assay type: in vivo, green foxtail (Setaria viridis); conditions: amount of applied herbicide 320 g/ha
Method in brief: as §1

[25] = system: barnyard grass; test: Test Example 5: herbicidal effect by foliage application, plastic box (Table 20, symbol H); assay type: in vivo, barnyard grass (Echinochloa crus-galli); conditions: foliage application, 320 g/ha, three weeks after application
Method in brief: as §2

[26] = system: Italian ryegrass; test: Test Example 4: herbicidal effect by soil treatment (Table 19, symbol K); assay type: in vivo, Italian ryegrass (Lolium multiflorum); conditions: amount of applied herbicide 320 g/ha
Method in brief: as §1

[27] = system: lambsquarters; test: Test Example 4: herbicidal effect by soil treatment (Table 19, symbol O); assay type: in vivo, lambsquarters (Chenopodium album); conditions: amount of applied herbicide 320 g/ha
Method in brief: as §1

[28] = amount of applied herbicide 320 g/ha

| SMILES | M: velvetleaf, herbicidal effect grade [1] | F: southern crabgrass, herbicidal effect grade [2] | Q: false cleavers, herbicidal effect grade [3] | J: blackgrass, herbicidal effect grade [4] | I: wild oat, herbicidal effect grade [5] | herbicidal effect on persian speedwell (R) [6] | herbicidal effect on wild oat (I) [7] | herbicidal effect on southern crabgrass (F) [9] | herbicidal effect on green foxtail (G) [10] | herbicidal effect on Italian ryegrass (K) [11] | herbicidal effect on windgrass (L) [12] | herbicidal effect on velvetleaf (M) [13] | L: windgrass, herbicidal effect grade [14] | P: chickweed, herbicidal effect grade [15] | R: persian speedwell, herbicidal effect grade [16] | herbicidal effect on blackgrass (J) [17] | herbicidal effect on false cleavers (Q) [18] | herbicidal effect on lambsquarters (O) [19] | H: barnyard grass, herbicidal effect grade [20] | N: redroot pigweed, herbicidal effect grade [23] | also measured |
| --- | --- | --- | --- | --- | --- | --- | --- | --- | --- | --- | --- | --- | --- | --- | --- | --- | --- | --- | --- | --- | --- |
| COc1cc2sc(-c3ccccc3OC)c(-c3c(O)c(C)nn(C)c3=O)c2cc1OC [5-059] | 0 (Herbicidal rate of 5% or less (almost no effect)) | 0 (Herbicidal rate of 5% or less (almost no effect)) | 0 (Herbicidal rate of 5% or less (almost no effect)) | 3 (Herbicidal rate of 40% or more and less than 70%) | 0 (Herbicidal rate of 5% or less (almost no effect)) | 4 (Herbicidal rate of 70% or more and less than 90%) | 4 (Herbicidal rate of 70% or more and less than 90%) | 4 (Herbicidal rate of 70% or more and less than 90%) | 4 (Herbicidal rate of 70% or more and less than 90%) | 4 (Herbicidal rate of 70% or more and less than 90%) | 4 (Herbicidal rate of 70% or more and less than 90%) | 3 (Herbicidal rate of 40% or more and less than 70%) | 3 (Herbicidal rate of 40% or more and less than 70%) | 0 (Herbicidal rate of 5% or less (almost no effect)) | 0 (Herbicidal rate of 5% or less (almost no effect)) | 5 (Herbicidal rate of 90% or more (almost completely withered)) | 0 (Herbicidal rate of 5% or less (almost no effect)) | 4 (Herbicidal rate of 70% or more and less than 90%) | 0 (Herbicidal rate of 5% or less (almost no effect)) | 0 (Herbicidal rate of 5% or less (almost no effect)) | herbicidal effect on Chinese sprangletop (D) ([8]; 320 g/ha): 3 (Herbicidal rate of 40% or more and less than 70%); herbicidal effect on rice flat sedge (E) ([21]; 320 g/ha): 4 (Herbicidal rate of 70% or more and less than 90%); herbicidal effect on barnyard grass (H) ([22]; 320 g/ha): 5 (Herbicidal rate of 90% or more (almost completely withered)); G: green foxtail, herbicidal effect grade [24]: 0 (Herbicidal rate of 5% or less (almost no effect)); herbicidal effect on barnyard grass (H) [25]: 3 (Herbicidal rate of 40% or more and less than 70%); K: Italian ryegrass, herbicidal effect grade [26]: 4 (Herbicidal rate of 70% or more and less than 90%); O: lambsquarters, herbicidal effect grade [27]: 0 (Herbicidal rate of 5% or less (almost no effect)) |
| COc1cc(F)ccc1-c1oc2ccccc2c1-c1c(O)c(C)nn(C)c1=O [8-001] | 0 (Herbicidal rate of 5% or less (almost no effect)) | 0 (Herbicidal rate of 5% or less (almost no effect)) | 0 (Herbicidal rate of 5% or less (almost no effect)) | 0 (Herbicidal rate of 5% or less (almost no effect)) | 3 (Herbicidal rate of 40% or more and less than 70%) | 4 (Herbicidal rate of 70% or more and less than 90%) | 3 (Herbicidal rate of 40% or more and less than 70%) | 0 (Herbicidal rate of 5% or less (almost no effect)) | 3 (Herbicidal rate of 40% or more and less than 70%) | 3 (Herbicidal rate of 40% or more and less than 70%) | 5 (Herbicidal rate of 90% or more (almost completely withered)) | 3 (Herbicidal rate of 40% or more and less than 70%) | 0 (Herbicidal rate of 5% or less (almost no effect)) | 0 (Herbicidal rate of 5% or less (almost no effect)) | 0 (Herbicidal rate of 5% or less (almost no effect)) | 0 (Herbicidal rate of 5% or less (almost no effect)) | 4 (Herbicidal rate of 70% or more and less than 90%) | 3 (Herbicidal rate of 40% or more and less than 70%) | 0 (Herbicidal rate of 5% or less (almost no effect)) | 0 (Herbicidal rate of 5% or less (almost no effect)) | Herbicidal effect on D (Chinese sprangletop), foliage application [8, 28]: 3 (Herbicidal rate of 40% or more and less than 70%); Herbicidal effect on E (rice flat sedge), foliage application [21, 28]: 1 (Herbicidal rate of 5% or more and less than 20%); Herbicidal effect on H (barnyard grass), foliage application [22, 28]: 4 (Herbicidal rate of 70% or more and less than 90%); G: green foxtail, herbicidal effect grade [24]: 0 (Herbicidal rate of 5% or less (almost no effect)); herbicidal effect on barnyard grass (H) [25]: 3 (Herbicidal rate of 40% or more and less than 70%); K: Italian ryegrass, herbicidal effect grade [26]: 0 (Herbicidal rate of 5% or less (almost no effect)); O: lambsquarters, herbicidal effect grade [27]: 0 (Herbicidal rate of 5% or less (almost no effect)) |
